Measured values reported in ChEMBL document CHEMBL5500349, “Discovery of ganoderic acid A (GAA) PROTACs as MDM2 protein degraders for the treatment of breast cancer” (Eur J Med Chem, 2024).
Calls of active or inactive are those of the source. The rule behind the calls is not given here.

How the values were obtained:
[1] = molecular target: T1, von Hippel-Lindau disease tumor suppressor/E3 ubiquitin-protein ligase Mdm2 (Homo sapiens, UniProt Q00987+P40337); experiment: Protac activity at VHL/MDM2 in human MCF7 cells assessed as reduction in MDM2 protein level at 100 uM after 48 hrs by Western blotting analysis; assay type: cell-based
Target sequence in this assay (P40337 whole entry, looked up): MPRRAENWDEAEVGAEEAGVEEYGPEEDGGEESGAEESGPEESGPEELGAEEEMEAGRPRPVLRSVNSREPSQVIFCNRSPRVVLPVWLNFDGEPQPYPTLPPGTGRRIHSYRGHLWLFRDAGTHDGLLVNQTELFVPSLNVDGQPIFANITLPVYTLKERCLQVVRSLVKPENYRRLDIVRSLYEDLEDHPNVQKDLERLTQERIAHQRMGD
Target sequence in this assay (Q00987 whole entry, looked up): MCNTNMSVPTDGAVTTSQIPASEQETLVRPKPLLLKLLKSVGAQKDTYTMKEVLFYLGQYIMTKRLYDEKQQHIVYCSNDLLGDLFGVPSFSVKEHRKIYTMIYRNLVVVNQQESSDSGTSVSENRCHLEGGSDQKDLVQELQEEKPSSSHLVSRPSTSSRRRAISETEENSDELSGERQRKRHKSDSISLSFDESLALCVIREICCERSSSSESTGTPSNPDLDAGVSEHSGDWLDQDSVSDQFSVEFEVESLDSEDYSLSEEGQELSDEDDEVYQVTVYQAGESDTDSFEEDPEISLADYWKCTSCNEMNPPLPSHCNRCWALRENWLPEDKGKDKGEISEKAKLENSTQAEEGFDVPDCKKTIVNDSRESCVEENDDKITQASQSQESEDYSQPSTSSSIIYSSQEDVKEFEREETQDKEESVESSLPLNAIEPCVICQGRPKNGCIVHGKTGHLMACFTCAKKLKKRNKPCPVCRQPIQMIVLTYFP

[2] = system: SJSA-1; experiment: Antiproliferative activity against human SJSA-1 cells assessed as cell viability at 100 uM incubated for 48 to 72 hrs by MTT assay; assay type: functional; settings: time 48-72 hrs, read-out: Activity
[3] = molecular target: T1, von Hippel-Lindau disease tumor suppressor/E3 ubiquitin-protein ligase Mdm2; experiment: Protac activity at VHL/MDM2 in human MDA-MB-231 cells assessed as reduction in MDM2 protein level at 80 uM after 48 hrs by Western blotting analysis; assay type: cell-based
Target sequence in this assay (P40337 whole entry, looked up): as the sequence (P40337 whole entry, looked up) above
Target sequence in this assay (Q00987 whole entry, looked up): as the sequence (Q00987 whole entry, looked up) above

[4] = system: MCF7; experiment: Antiproliferative activity against human MCF7 cells assessed as cell viability at 100 uM incubated for 48 to 72 hrs by MTT assay; assay type: functional; settings: time 48-72 hrs, read-out: Activity
[5] = system: MDA-MB-231; experiment: Antiproliferative activity against human MDA-MB-231 cells assessed as cell viability at 100 uM incubated for 48 to 72 hrs by MTT assay; assay type: functional; settings: time 48-72 hrs, read-out: Activity
[6] = system: HepG2; experiment: Antiproliferative activity against human HepG2 cells assessed as cell viability at 100 uM incubated for 48 to 72 hrs by MTT assay; assay type: functional; settings: time 48-72 hrs, read-out: Activity
[7] = molecular target: T1, von Hippel-Lindau disease tumor suppressor/E3 ubiquitin-protein ligase Mdm2; experiment: Protac activity at VHL/MDM2 in human MCF7 cells assessed as reduction in MDM2 protein level after 48 hrs by Western blotting analysis; assay type: cell-based
[8] = Cytotoxicity against mouse HT-22 cells assessed as cell viability at 100 uM incubated for 48 to 72 hrs by MTT assay; assay type: toxicity, cell-based; settings: time 48-72 hrs, read-out: Activity
[9] = molecular target: T1, von Hippel-Lindau disease tumor suppressor/E3 ubiquitin-protein ligase Mdm2; experiment: Protac activity at VHL/MDM2 in human MCF7 cells assessed as upregulation of p21 level at 75 to 105 uM after 48 hrs by Western blotting analysis; assay type: cell-based; settings: dose 75-105 µM
Target sequence in this assay (P40337 whole entry, looked up): as the sequence (P40337 whole entry, looked up) above
Target sequence in this assay (Q00987 whole entry, looked up): as the sequence (Q00987 whole entry, looked up) above

[10] = molecular target: E3 ubiquitin-protein ligase Mdm2 (Homo sapiens, UniProt Q00987); experiment: Binding affinity to MDM2 (unknown origin) by SPR assay
Chain of E3 ubiquitin-protein ligase Mdm2 (Q00987 whole entry): as the sequence (Q00987 whole entry, looked up) above

[11] = molecular target: T1, von Hippel-Lindau disease tumor suppressor/E3 ubiquitin-protein ligase Mdm2; experiment: Protac activity at VHL/MDM2 in human MCF7 cells assessed as reduction in MDM2 protein level at 100 uM pretreated with MG-132 for 2 hrs followed by compound addition and measured after 48 hrs by Western blotting analysis; assay type: cell-based
Target sequence in this assay (P40337 whole entry, looked up): as the sequence (P40337 whole entry, looked up) above
Target sequence in this assay (Q00987 whole entry, looked up): as the sequence (Q00987 whole entry, looked up) above

[12] = molecular target: T1, von Hippel-Lindau disease tumor suppressor/E3 ubiquitin-protein ligase Mdm2; experiment: Protac activity at VHL/MDM2 in human MCF7 cells assessed as upregulation of p53 level at 75 to 105 uM after 48 hrs by Western blotting analysis; assay type: cell-based; settings: dose 75-105 µM
Target sequence in this assay (P40337 whole entry, looked up): as the sequence (P40337 whole entry, looked up) above
Target sequence in this assay (Q00987 whole entry, looked up): as the sequence (Q00987 whole entry, looked up) above

SMILES | Activity [1] | Activity [3] | Activity [7] | DC50 [7] [µM] | Activity [9] | Kd [10] [µM] | Activity [11] | Activity [12] | viability at 100 µM [2] [%] | viability at 100 µM [4] [%] | viability at 100 µM [5] [%] | viability at 100 µM [6] [%] | viability at 100 µM [8] [%]
C[C@H](CC(=O)C[C@@H](C)[C@H]1C[C@H](O)[C@@]2(C)C3=C(C(=O)C[C@]12C)[C@@]1(C)CCC(=O)C(C)(C)[C@@H]1C[C@@H]3O)C(=O)NCc1cn(CCOCCOCCOCCNc2cccc3c2C(=O)N(C2CCC(=O)NC2=O)C3=O)nn1 (some centres undefined) | – | – | – | – | – | – | – | – | 67 | 83.4 | 74.7 | 91 | 78.2
C[C@H](CC(=O)C[C@@H](C)[C@H]1C[C@H](O)[C@@]2(C)C3=C(C(=O)C[C@]12C)[C@@]1(C)CCC(=O)C(C)(C)[C@@H]1C[C@@H]3O)C(=O)NCc1cn(CCOCCOCCOCCOCCNc2cccc3c2C(=O)N(C2CCC(=O)NC2=O)C3=O)nn1 (some centres undefined) | – | – | – | – | – | – | – | – | 95.9 | 57.2 | 57.9 | 125 | 98.3
C[C@H](CC(=O)C[C@@H](C)[C@H]1C[C@H](O)[C@@]2(C)C3=C(C(=O)C[C@]12C)[C@@]1(C)CCC(=O)C(C)(C)[C@@H]1C[C@@H]3O)C(=O)NCCOCCOCCOCCOCCn1cc(CNc2cccc3c2C(=O)N(C2CCC(=O)NC2=O)C3=O)nn1 (some centres undefined) | – | – | – | – | – | – | – | – | 83 | 75.9 | 90.2 | 130 | 91.9

Second part, led by results:

Activity [1] | Activity [3] | Activity [7] | DC50 [7] [µM] | Activity [9] | Kd [10] [µM] | Activity [11] | Activity [12] | SMILES | viability at 100 µM [2] [%] | viability at 100 µM [4] [%] | viability at 100 µM [5] [%] | viability at 100 µM [6] [%] | viability at 100 µM [8] [%]
inactive | inactive | – | – | – | – | – | – | C[C@H](CC(=O)C[C@@H](C)[C@H]1C[C@H](O)[C@@]2(C)C3=C(C(=O)C[C@]12C)[C@@]1(C)CCC(=O)C(C)(C)[C@@H]1C[C@@H]3O)C(=O)O [GANODERIC ACID A] | 98.9 | 84.7 | 84.8 | 87.2 | –
– | – | Dose-Dependent Effect | 100 | Active | 32.4 | inactive | Active | Cc1ncsc1-c1ccc([C@H](C)NC(=O)[C@@H]2C[C@@H](O)CN2C(=O)[C@@H](NC(=O)CCCCc2cn(CCOCCOCCOCCNC(=O)[C@H](C)CC(=O)C[C@@H](C)[C@H]3C[C@H](O)[C@@]4(C)C5=C(C(=O)C[C@]34C)[C@@]3(C)CCC(=O)C(C)(C)[C@@H]3C[C@@H]5O)nn2)C(C)(C)C)cc1 | 69.6 | 24.9 | 35.4 | 90.2 | 91.8
inactive | inactive | – | – | – | – | – | – | CC(=O)N[C@H](C(=O)N1C[C@H](O)C[C@H]1C(=O)N[C@@H](C)c1ccc(-c2scnc2C)cc1)C(C)(C)C | – | – | – | – | –
